Assay results published in patent US20160083424A1, “COMPOSITIONS AND METHODS FOR TARGETING ANTIGEN-PRESENTING CELLS” (OSLO UNIVERSITETSSYKEHUS HF, priority 2013, published 2016).
Blank lines part the entries; values can stand above or below the molecule they belong to. Where no end group is shown, it is not given here.

How the values were obtained:
iDCs [1] = experiment: Phage binding by flow cytometry; parameters: species or system human; conditions: binding of the phage clones to iDC, flow cytometry
Method: (§1) In brief, aliquots of DCs (10^5) were divided into conical 96-well micro-plate, washed with PBS buffer containing 1% FCS, and then incubated with the amplified phages (≈10^9 TU) for 30-60 min on ice. After washing, cells were incubated with biotinylated anti-M13 monoclonal antibody (Abcam) and then with phycoerythrin (PE)-conjugated streptavidin. Competition assays were performed by pre-incubating DCs with different amounts of the peptides for 15 min on ice. Then NW phage (≈10^9 TU) was added and samples incubated for additional 60 min on ice. After washing, bound phages were detected as indicated above. Samples were analyzed by FACSCanto II flow cytometry.

Monocytes = experiment: Competition of NW phage binding by NW peptide and its mutant peptides; parameters: species or system human
Method: as §1
To uncover the contribution of individual side chains and identify which amino acids are responsible for the NW peptide binding to monocytes and dendritic cells, alanine scanning was performed. Derivatives of the NW peptide were synthesized with exchange of each amino acid by alanine (FIG. 11A). These peptide derivatives were used to compete with the NW phage binding to monocytes. For each peptide, four concentrations were tested. Bound phage particles were detected with the use of biotin conjugated anti-M13 antibody and PE-conjugated streptavidin. The NW peptide (WT) competed effectively with the phage binding to monocytes with an IC50 of approximately 0.5 uM. The replacement of tryptophan (W) at position 2, 6, or 12 by a single alanine abolished the binding. Indeed, no significant competition with the phage binding was seen even at high peptide concentrations (C4=20 uM). Similarly, replacement of leucine (L) at position 4 or 7 by alanine inhibited the peptide binding (FIG. 11B).

iDC = experiment: Competition of NW phage binding by synthetic peptides; parameters: species or system human
Method: as §1
To further investigate the importance of the NW peptide on phage binding, competition experiments were performed using synthetic peptides.

iDCs [2] = experiment: Peptide binding by flow cytometry; parameters: species or system human; conditions: 4° C. and 37° C.
Method: The cells were seeded onto 24-well plate (3×10^5/well/0.5 ml) in X-vivo 15 medium and incubated overnight at 37° C. Subsequently, they were incubated with 6IAF-conjugated peptides (5 μg/ml) for 30 min at 37° C., gently scraped, washed 3 times and then analyzed by flow cytometry. Binding was also performed at 4° C.

PBMCs = experiment: Autologous stimulation of PBMCs with pp65 targeted peptides, [3H] thymidine incorporation; format: cell-based, human; conditions: whole PBMCs, peptides at 4° C., 5 days at 37° C.
Method: (§2) PBMC from HLA-A2/CMV+ donors were thawed, washed and then incubated with the peptides (5 μg/ml) for 60 min at 4° C. Subsequently, the cells were washed twice and then plated at 2×10^5 cells per well in 96-well tissue culture plate. Cells were cultured for 5 days and subsequently they were pulsed with [^3H] thymidine and harvested 16 h later. In some experiments, the cells were cultured for 12 days and then stained with dextramers specific for pp65 NLVPMVATV (SEQ ID NO:19) epitope. Monocyte-depleted PBMCs were also used. To analyze primary immune responses against pp65 protein, PBMCs from HLA-A2+/CMV-negative donors were used. Autologous DCs were incubated with either NW-pp65 or GA-pp65 peptide (5 μg/ml) at 4° C. for 1 h, followed by three washes to remove unbound peptides. Subsequently, the cells were incubated with CD45RO-depleted PBMC (responder cells) and co-cultured for 10 days at ratio 1/10 (DC to responder cells) in X-vivo 15 medium supplemented with 10 ng/ml human IL-7 for 10 days. After 2 rounds of stimulation (8 days each) with autologous DC loaded with peptides, the cells were stained with dextramers specific for pp65 NLVPMVATV (SEQ ID NO:19) epitope. To test spontaneous uptake of peptides by DCs, PBMCs from HLA-A2+/CMV positive donors were incubated at 37° C. with various concentrations of untargeted or targeted pp65 peptide for 90 min. […]

[3] = tested on: CD8 T cells against NLVPMVATV epitope; experiment: Dextramer staining of CD8 T cells after PBMC stimulation with pp65 peptides; format: cell-based, human
Method: PBMC from HLA-A2/CMV+ donors were thawed, washed and then incubated with the peptides (5 μg/ml) for 60 min at 4° C. Subsequently, the cells were washed twice and then plated at 2×10^5 cells per well in 96-well tissue culture plate. Cells were cultured for 5 days and subsequently they were pulsed with [^3H] thymidine and harvested 16 h later. In some experiments, the cells were cultured for 12 days and then stained with dextramers specific for pp65 NLVPMVATV (SEQ ID NO:19) epitope. Monocyte-depleted PBMCs were also used. To analyze primary immune responses against pp65 protein, PBMCs from HLA-A2+/CMV-negative donors were used. Autologous DCs were incubated with either NW-pp65 or GA-pp65 peptide (5 μg/ml) at 4° C. for 1 h, followed by three washes to remove unbound peptides. Subsequently, the cells were incubated with CD45RO-depleted PBMC (responder cells) and co-cultured for 10 days at ratio 1/10 (DC to responder cells) in X-vivo 15 medium supplemented with 10 ng/ml human IL-7 for 10 days. After 2 rounds of stimulation (8 days each) with autologous DC loaded with peptides, the cells were stained with dextramers specific for pp65 NLVPMVATV (SEQ ID NO:19) epitope. To test spontaneous uptake of peptides by DCs, PBMCs from HLA-A2+/CMV positive donors were incubated at 37° C. with various concentrations of untargeted or targeted pp65 peptide for 90 min. Subsequently, the cells were washed to remove unbound peptides and cultured at 37° C. for 12 days and then stained with dextramers specific for pp65 NLVPMVATV (SEQ ID NO:19) epitope.
Dextramers with CMV (NLVPMVATV) (SEQ ID NO:19) and HIV (ILKEPVHGV) (SEQ ID NO:22) HLA-A2 specific antigens were obtained from Immudex (Copenhagen, Denmark). Antibodies against human CD8, CD19 and CD56 were obtained from eBioscience (San Diego, Calif., USA). Briefly, around 10^6 cells were washed and resuspended in 50 μl staining buffer SB (PBS with 0.1% human serum albumin and 0.1% NaN3) containing 1 mg/ml aggregated α-globulin and then stained with dextramer for 10 min in the dark at room temperature. Subsequently, antibodies against CD8, CD19 and CD56 were added and incubation continued for additional 20 min. Cells were washed and resuspended in SB containing 1% paraformaldehyd and analyzed on a BD SLR II flow cytometer. The data were analyzed using FCS Express (De Novo Software, Los Angeles, Calif., USA).
Monocytes have the capacity to differentiate into macrophages or inflammatory DCs in-vitro and in-vivo (Auffray et al., (2009) Annu Rev. Immunol. 27, 669-92). Given that the NW peptide bound to blood monocytes, it was investigated whether this binding affects T-cell activation. Therefore, proliferation assays were performed with whole PBMCs. […]

[4] = tested on: autologous CD4 or CD8 T cells; experiment: Autologous stimulation of T lymphocytes by DCs exposed to targeted pp65 peptides, [3H] thymidine incorporation; format: cell-based, human; conditions: semi mDCs loaded at 4° C., HLA-A2+/CMV positive donors, 5 days
Method: (§3) Peptides at a concentration of 5 μg/ml were incubated with semi mDCs from HLA-A2/CMV-positive donors for 60 min at 4° C. Subsequently, they were washed to remove unbound peptides. Autologous stimulation was done in 96-well tissue culture plates in X-vivo 15 medium. Briefly, DCs were mixed with 10^5 autologous CD4 or CD8 T cells at a DC/lymphocytes ratios of 1/5 and 1/10 in a final volume of 250 μl. Cells were incubated for 5 days and then they were pulsed with [^3H] thymidine and harvested 16 h later. [^3H] thymidine incorporation was measured in a β-scintillation counter. In some experiments, the cells were cultured for 8 days and then stained with dextramers specific for pp65 NLVPMVATV (SEQ ID NO:19) epitope.
The capacity of the NW-pp65 fusion peptide (60-mer) to activate T cells from HLA-A2+/CMV positive donors was evaluated. It should be noted that the 48-mer pp65 peptide contains both MHC class I (e.g. NLVPMVATV) (SEQ ID NO:19) and class II (e.g. AGILARNLVPMVATV (SEQ ID NO:23), FFWDANDIYRI (SEQ ID NO:24)) epitopes, allowing the detection of CD4 and CD8 T-cell responses (24-26). […] All cultures were incubated at 37° C. for 5 days and T-cell activation was determined by measuring their proliferation potential (FIG. 6A). […]

[5] = tested on: pp65-specific naïve T cells; experiment: Induction of CMV-pp65-specific T cells from naive donor repertoire, dextramer staining; format: cell-based, human; conditions: CD45RO-depleted PBMCs, HLA-A2+/CMV negative donors, IL-7, representative example
Method: as §2, with “days.” for “days. After 2 rounds of stimulation (8 days each) with autologous DC loaded with peptides, the cells were stained with dextramers specific for pp65 NLVPMVATV (SEQ ID NO:19) epitope. To test spontaneous uptake of peptides by DCs, PBMCs from HLA-A2+/CMV positive donors were incubated at 37° C. with various concentrations of untargeted or targeted pp65 peptide for 90 min.”
Dextramers with CMV (NLVPMVATV) (SEQ ID NO:19) and HIV (ILKEPVHGV) (SEQ ID NO:22) HLA-A2 specific antigens were obtained from Immudex (Copenhagen, Denmark). […] Cells were washed and resuspended in SB containing 1% paraformaldehyd and analyzed on a BD SLR II flow cytometer. The data were analyzed using FCS Express (De Novo Software, Los Angeles, Calif., USA). […]

[6] = tested on: PBMC cultures from CMV-positive donors; experiment: IFN-γ production in PBMC cultures; format: cell-based, human; conditions: PBMCs from HLA-A2+/CMV positive
Method: (A) PBMCs from HLA-A2+/CMV-positive donors were incubated with the indicated fusion peptides for 60 min at 4° C., washed and then incubated at 37° C. for […]. T-cell proliferation was monitored by thymidine incorporation. (B) Dextramer staining of CD8 T cells against NLVPMVATV (SEQ ID NO:19) epitope. (C) As in A and B, but monocyte-depleted PBMCs were used. (D) INF-γ and IL-10 levels in PBMC culture supernatants determined by ELISA.
Next, the immunostimulatory potential of the NW-pp65 fusion peptide was evaluated by assessing its ability to stimulate the overall IFN-γ and IL-10 production in PBMC cultures from CMV-positive donors (FIG. 8D).

[7] = tested on: CD8 T cells specific for the NLVPMVATV epitope; experiment: Dextramer staining of CD8 T cells after stimulation with peptide-exposed DCs; format: cell-based, human; conditions: DC-stimulated CD8 T cells, CMV positive donors, equal molar concentrations, n=3
Method: as §3
Dextramers with CMV (NLVPMVATV) (SEQ ID NO:19) and HIV (ILKEPVHGV) (SEQ ID NO:22) HLA-A2 specific antigens were obtained from Immudex (Copenhagen, Denmark). Antibodies against human CD8, CD19 and CD56 were obtained from eBioscience (San Diego, Calif., USA). […] Cells were washed and resuspended in SB containing 1% paraformaldehyd and analyzed on a BD SLR II flow cytometer. The data were analyzed using FCS Express (De Novo Software, Los Angeles, Calif., USA).

[8] = molecular target: NW peptide receptor (human); experiment: competition with NW phage binding to monocytes, flow cytometry

Binding (iDCs [1]): +++ (binding <80%: +++)
Molecule: SPGLSLVSHMQT [DC13]

mean fluorescence of bound phage (Monocytes; at C3 concentration (8 μM), unstained cells 250): ~250 | competition with NW phage binding / peptide binding to monocytes (Monocytes; mutant peptides, four concentrations (0.4, 2, 8, 20 μM)): effectively competed
Molecule: N10D11 double mutant: NW peptide with asparagine 10 and aspartic acid 11 both replaced by alanine (NWYLPWLGTAAW)

Molecule: GALDTTHHRPWTC [control peptide, irrelevant control peptide, reference compound]
inhibition of the phage binding to iDC by synthetic peptides (iDC): but not an irrelevant control peptide, effectively inhibited | binding of 6-IAF-conjugated peptides to iDCs (iDCs [2]): no significant binding

Molecule: GALDTTHHRPWTGCFTWPPWQAGILARNLVPMVATVQGQNLKYQEFFWDANDIYRIFAEL [GA-60-mer, 48-mer CMV pp65 peptide fused to control peptide, reference compound]
T-cell proliferation ([3H]-thymidine) (PBMCs): did not | CTL response (dextramer staining) ([3]; monocyte-depleted PBMCs): 0.53% | CTL response (dextramer staining) ([3]; whole PBMCs, n=3): 0.45% | T-cell activation (proliferation, [3H]-thymidine) [4]: no significant effect | pp65-specific naïve T cells (dextramer staining) [5]: 0.01% | proportion of CD8 and CD4 T cells that produced IFN-γ [6]: very low response | dextramer-positive CD8 T cells specific for NLVPMVATV [7]: 0.51%

inhibition of the phage binding to iDC by synthetic peptides (iDC): failed to reduce binding
Molecule: NWYGAGAGTNDW [NW-mutant, NW-peptide lacking the motif LPWL]

IC50 [8]: 500 nM
Molecule: NWYLPWLGTNDWC (also: carries 6-iodoacetamidofluorescein in direct binding assays) [NW peptide]
